Test results published in patent publication US5545736A, “6-thiono-5,6-dihydro-dibenz[B,E] azepin-11-one-11-oximes” (Bayer Aktiengesellschaft, priority 1991, dated 1996).
Read-outs that look alike come from different tables or passages of the source.

Test system: HIV
Assay: HIV infection in cell culture (syncytia formation; PBLs or H9 cells)
Format: cell-based
Conditions: read-out: IC50 (concentration at which 50% of the virus-induced syncytia were suppressed)
Method: The HIV test was carried out with slight modifications according to the method of Pauwels et al. [cf. Journal of Virological Methods 20, (1988), 309-321].
Normal human blood lymphocytes (PBLs) were concentrated by means of Ficoll-Hypaque and stimulated with phytohaemagglutinin (90 μg/ml) and interleukin-2 (40 U/ml) in RPMI 1640 and 20% foetal calf serum. For infection with the infectious HIV, PBLs were pelleted and the cell pellet was then suspended in 1 ml of HIV virus adsorption solution and incubated for 1 hour at 37° C.
Alternatively, HIV-susceptible H9 cells were employed instead of normal human blood lymphocytes for testing the antiviral effects of the compounds according to the invention.
The virus adsorption solution was centrifuged and the infected cell pellet was taken up in growth medium so that a concentration of 1×10^5 cells per ml was established. The cells infected in this way were pipetted into the wells of 96-well microtiter plates to give 1×10^4 cells/well.
The first vertical row of the microtiter plate contained only growth medium and cells which had not been infected, but otherwise treated exactly as described above (cell control). The second vertical row of the microtiter plate contained only HIV-infected cells (virus control) in growth medium. The other wells contained the compounds according to the invention in differing concentrations, starting from the wells of the 3rd vertical row of the microtiter plate, from which the test substances were diluted 2^10 times in 2-fold steps.
The test batches were incubated at 37° C. until, in the untreated virus control, the syncytia formation typical of HIV occurred (between day 3 and 6 after infection), which was then microscopically assessed. Under these test conditions, in the untreated virus control about 20-50 syncytia resulted, while the untreated cell control contained no syncytia.
The IC50 values were determined as the concentration of the treated and infected cells at which 50% (about 10-20 syncytia) of the virus-induced syncytia were suppressed by treatment with the compound according to the invention.

[1] = Human immunodeficiency virus 1, 72 h, HIV-infected PBLs or alternatively H9 cells, 37° C., read between day 3 and 6 after infection

SMILES | IC50 (Human immunodeficiency virus 1, H9, 72 h) [nM] | IC50 [1] [nM]
Cc1ccnc2c1NC(=O)c1cccnc1N2C1CC1 [BIRG 587, reference compound] | 90 | –
CN(C)CCON=c1c2cc(Cl)ccc2[nH]c(=S)c2ccccc12 [Example 2] | – | 1500
S=c1[nH]c2ccc(Cl)cc2c(=NOCCN2CCOCC2)c2ccccc12 [Example 3] | – | 380
CON=c1c2cc(Cl)ccc2[nH]c(=S)c2ccccc12 [Example 4] | – | 380
